Literature values, collected in paper PMC12039075 (Structure (London, England : 1993), 2022).

Test system: human nicotinic receptor (HNR) α4/β2 subunit

CN1CCC[C@H]1c1cccnc1 [nicotine]
published affinity range: 0.6 to 10 nM
